Results as given in patent US8293781B2, “Indole derivatives having cPLA2 inhibiting activity and applications and production methods of the same” (Daiichi Sankyo Company, Limited, priority 2007, dated 2012).
Structures can show the parent of a compound that is named as a salt.

Legend:
[1] = target: T1, cPLA2 crudely purified from the cytoplasm fraction of U937 (Homo sapiens, UniProt P47712); experiment: Measurement of cPLA2 inhibitory activity (release of [14C]-arachidonic acid from phosphatidyl choline liposome); type: biochemical; settings: cPLA2 from U937 cytoplasm fraction, [14C]arachidonyl-phosphatidyl choline liposome, 37° C., 60 minutes; read-out: cPLA2 inhibitory activity, 50% inhibiting concentration IC50
T1 construct: cPLA2 crudely purified from the cytoplasm fraction of U937; endogenous in cells; host or cells: U937 cells (cytoplasm fraction, crude purification)
T1 sequence (P47712 1-749): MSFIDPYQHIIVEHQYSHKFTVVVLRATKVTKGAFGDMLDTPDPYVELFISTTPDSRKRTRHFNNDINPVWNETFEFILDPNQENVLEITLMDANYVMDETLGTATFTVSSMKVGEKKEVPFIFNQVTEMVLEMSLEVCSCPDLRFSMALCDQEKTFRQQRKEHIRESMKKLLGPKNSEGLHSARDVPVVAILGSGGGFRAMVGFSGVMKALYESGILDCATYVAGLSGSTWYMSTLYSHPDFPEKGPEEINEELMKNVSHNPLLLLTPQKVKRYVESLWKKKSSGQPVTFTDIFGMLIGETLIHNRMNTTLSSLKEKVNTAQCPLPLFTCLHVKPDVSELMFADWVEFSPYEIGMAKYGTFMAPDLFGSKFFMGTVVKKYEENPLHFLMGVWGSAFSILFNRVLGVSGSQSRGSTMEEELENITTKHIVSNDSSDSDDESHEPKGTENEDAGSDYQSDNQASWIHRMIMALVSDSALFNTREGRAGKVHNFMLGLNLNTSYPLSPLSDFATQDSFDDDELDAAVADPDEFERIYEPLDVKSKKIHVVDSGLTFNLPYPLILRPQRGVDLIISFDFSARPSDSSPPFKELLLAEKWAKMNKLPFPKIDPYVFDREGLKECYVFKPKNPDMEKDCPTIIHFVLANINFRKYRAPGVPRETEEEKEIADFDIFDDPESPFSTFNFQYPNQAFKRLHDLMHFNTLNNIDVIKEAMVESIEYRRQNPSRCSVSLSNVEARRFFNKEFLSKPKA
Summary of the method: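 The read-out is radioactivity from extracted [14C]-arachidonic acid, freed over 60 min at 37° C from liposomes of 14C-arachidonyl phosphatidylcholine (10 μM PC in the added solution). Buffer was 50 mM HEPES pH 7.5 with Ca2+, DTT, NaCl and BSA. IC50 was derived from inhibition relative to enzyme control minus no-enzyme control.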

[2] = system: Cys-LTs production in rat mast cell like cell line RBL-2H3; experiment: Calcium ionophore-induced Cys-LTs production system using RBL-2H3; type: cell-based; settings: 1 h, RBL-2H3, A23187 5 μM, one hour
Protocol: For the evaluation by LTB4 and Cys-LTs production inhibiting activity, the calcium ionophore-induced LTB4 and Cys-LTs production system using the rat mast cell like cell line RBL-2H3 with reference to the method of Ishiwara et al. (see Ishiwara M. et al., J Pharmacol Exp Ther 307: 583, 2003) was used. That is, rat mast cell like cell line RBL-2H3 cells were suspended in Dulbecco's modified Eagle's medium (Nacalai Tesque) containing 10% bovine fetal serum (BioWhittaker) and 10 μg/ml gentamycin (Invitrogen). The infiltrating cell suspension 200 μl containing 1×10^5 cells per well was inoculated to 96-well culture plate and cultured over night under conditions of 5% CO2 and 37° C. The culture supernatant was removed, then the test compound solution or solvent 50 μl was added. After 30 minutes preculture, calcium ionophore (A23187) was added to a final concentration of 5 μM to induce leukotriene production.
One hour after calcium ionophore stimulus, the culture supernatant was recovered and the amounts of LTB4 and Cys-LTs in the supernatant were measured using an EIA kit (made by Amersham). Based on the measurement values, the test compound concentrations suppressing 50% of the mediator production at the time of non-addition of a compound (IC50 value) were calculated.

SMILES | IC50 [1] [nM] | IC50 [2] [nM]
O=C(O)CCc1ccc2c(c1)c(CCc1ccccc1)cn2-c1ccc(O)cc1 [Example 126, 3-[1-(4-hydroxyphenyl)-3-(2-phenylethyl)-1H-indol-5-yl]propanoic acid] | 11 | 4170
O=C(O)CCc1ccc2c(c1)c(CCc1ccccc1)cn2-c1ccc(Oc2ccccc2)cc1 [Example 231, 3-[1-(4-phenoxyphenyl)-3-(2-phenylethyl)-1H-indol-5-yl]propanoic acid 2-amino-2-(hydroxymethyl)propane-1,3-diol salt (1:1)] | 20 | 300
O=C(O)CCc1ccc2c(c1)c(CCc1ccccc1)cn2-c1ccc(F)cc1 [Example 187, 3-[1-(4-fluorophenyl)-3-(2-phenylethyl)-1H-indol-5-yl]propanoic acid] | 58 | 890

Next, values leading:

IC50 [1] [nM] | IC50 [2] [nM] | SMILES
28 | 1060 | O=C(O)CCc1ccc2c(c1)c(CCc1ccccc1)cn2-c1ccc(OC(F)F)cc1 [Example 190, 3-{1-[4-(difluoromethoxy)phenyl]-3-(2-phenylethyl)-1H-indol-5-yl}propanoic acid 2-amino-2-(hydroxymethyl)propane-1,3-diol salt (1:1)]
47 | 1260 | COCc1ccc(-n2cc(CCc3ccccc3)c3cc(CCC(=O)O)ccc32)cc1 [Example 217, 3-{1-[4-(methoxymethyl)phenyl]-3-(2-phenylethyl)-1H-indol-5-yl}propanoic acid 2-amino-2-(hydroxymethyl)propane-1,3-diol salt (1:1)]
14 | 400 | O=C(O)CCc1ccc2c(c1)c(CCc1ccccc1)cn2-c1ccc(OCCO)cc1 [Example 229, 3-{1-[4-(2-hydroxyethoxy)phenyl]-3-(2-phenylethyl)-1H-indol-5-yl}propanoic acid 2-amino-2-(hydroxymethyl)propane-1,3-diol salt (1:1)]
